Results taken from patent publication US11180474B2 (BRISTOL-MYERS SQUIBB COMPANY, priority 2016, dated 2021).
Counter-ions that a name gives are not always drawn.

Each compound was assayed against T1, human TLR9 (Homo sapiens, UniProt Q9NR96) (assay: TLR9 inhibition reporter assay (HEK-Blue cells, SEAP reporter, ODN2006 stimulation)). Conditions: HEK-Blue cells overexpressing human TLR9, ODN2006 5 nM.
T1 construct: host or cells: HEK-Blue cells
T1 sequence (Q9NR96 26-1032): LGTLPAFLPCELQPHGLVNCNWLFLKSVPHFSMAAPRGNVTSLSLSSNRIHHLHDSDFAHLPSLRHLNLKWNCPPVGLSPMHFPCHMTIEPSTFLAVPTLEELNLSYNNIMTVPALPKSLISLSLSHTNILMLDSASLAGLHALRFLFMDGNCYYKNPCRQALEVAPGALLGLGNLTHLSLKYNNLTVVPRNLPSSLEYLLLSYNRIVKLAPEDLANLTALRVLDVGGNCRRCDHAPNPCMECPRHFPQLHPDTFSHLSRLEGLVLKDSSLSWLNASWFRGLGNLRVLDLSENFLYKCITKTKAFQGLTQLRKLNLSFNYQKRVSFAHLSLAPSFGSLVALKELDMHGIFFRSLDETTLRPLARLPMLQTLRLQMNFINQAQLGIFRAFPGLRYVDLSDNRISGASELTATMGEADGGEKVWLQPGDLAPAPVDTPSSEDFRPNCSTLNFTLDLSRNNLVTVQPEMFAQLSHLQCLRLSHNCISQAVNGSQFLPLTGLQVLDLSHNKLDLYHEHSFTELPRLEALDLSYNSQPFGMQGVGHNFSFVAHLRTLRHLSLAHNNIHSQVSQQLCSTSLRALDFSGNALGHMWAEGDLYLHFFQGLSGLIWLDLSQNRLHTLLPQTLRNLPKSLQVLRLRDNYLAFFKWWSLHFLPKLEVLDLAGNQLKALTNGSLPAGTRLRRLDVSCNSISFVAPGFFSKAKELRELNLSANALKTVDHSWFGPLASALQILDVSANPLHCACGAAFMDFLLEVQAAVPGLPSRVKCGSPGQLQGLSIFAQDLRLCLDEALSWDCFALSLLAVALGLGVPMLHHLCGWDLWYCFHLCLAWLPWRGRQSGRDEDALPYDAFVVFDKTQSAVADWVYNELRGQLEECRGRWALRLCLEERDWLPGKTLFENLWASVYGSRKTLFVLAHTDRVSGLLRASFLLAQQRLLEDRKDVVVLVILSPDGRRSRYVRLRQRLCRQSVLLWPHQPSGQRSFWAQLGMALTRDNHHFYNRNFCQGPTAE
Format: cell-based
In short: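 Human TLR7/8/9 HEK-Blue reporter lines; dose range 0.05 nM–50 μM; 30 min RT preincubation; stimulus gardiquimod 7.5 μM / R848 15.9 μM / ODN2006 5 nM respectively; 22 h, 37 °C; SEAP detected colorimetrically.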
Work on `COc1ccc(-c2[nH]c3ccc(C4CCN(CC(=O)NCCC5CCCN5C)CC4)cc3c2CC(F)(F)F)cc1OC` (centres unmarked) [Example 360, 2-(4-(2-(3,4-dimethoxyphenyl)-3-(2,2,2-trifluoroethyl)-1H-indol-5-yl)piperidin-1-yl)-N-(2-(1-methylpyrrolidin-2-yl)ethyl) acetamide] yielded an IC50 of 0.392 µM. Work on `COc1ccc(-c2[nH]c3ccc(C4CCNCC4)cc3c2CC(F)(F)F)cc1OC` [Example 329, 2-(3,4-dimethoxyphenyl)-5-(piperidin-4-yl)-3-(2,2,2-trifluoroethyl)-1H-indole] yielded an IC50 of 1.16 µM. `COc1ccc(-c2[nH]c3ccc(C4CCN(CC(=O)N5CCN(C(C)=O)CC5)CC4)cc3c2CC(F)(F)F)cc1OC` [Example 361, 1-(4-acetylpiperazin-1-yl)-2-(4-(2-(3,4-dimethoxyphenyl)-3-(2,2,2-trifluoroethyl)-1H-indol-5-yl)piperidin-1-yl)ethan-1-one] was tested, and the IC50 was 2.42 µM. For `COc1ccc(-c2[nH]c3ccc(C4CCN(CC(=O)N(C)C)CC4)cc3c2CC(F)F)cc1OC` [Example 400, 2-(4-(3-(2,2-difluoroethyl)-2-(3,4-dimethoxyphenyl)-1H-indol-5-yl)piperidin-1-yl)-N,N-dimethylacetamide], the IC50 was 3.96 µM. Work on `COc1ccc(-c2[nH]c3ccc(C4CCNCC4F)cc3c2C(C)C)cc1OC` (racemic) [Example 319, 2-(3,4-dimethoxyphenyl)-5-(3-fluoropiperidin-4-yl)-3-isopropyl-1H-indole] yielded an IC50 of 9.11 µM. `COc1ccc(-c2[nH]c3ccc(C4CCN(C(=O)C[C@@H](C)O)CC4)cc3c2CC(F)(F)F)cc1OC` [Example 353, (R)-1-(4-(2-(3,4-dimethoxyphenyl)-3-(2,2,2-trifluoroethyl)-1H-indol-5-yl)piperidin-1-yl)-3-hydroxybutan-1-one] gave an IC50 of 40 µM. For `COc1ccc(-c2[nH]c3ccc(C4CCN(C(=O)CCn5ccc6ccccc65)CC4)cc3c2CC(F)(F)F)cc1OC` [Example 337, 1-(4-(2-(3,4-dimethoxyphenyl)-3-(2,2,2-trifluoroethyl)-1H-indol-5-yl)piperidin-1-yl)-3-(1H-indol-1-yl)propan-1-one], the IC50 was no less than 50 µM. Compound `COc1ccc(-c2[nH]c3ccc(C4CCN(CC(=O)Nc5cc(C(C)(C)C)[nH]n5)CC4)cc3c2CC(F)(F)F)cc1OC` [Example 387, N-(5-(tert-butyl)-1H-pyrazol-3-yl)-2-(4-(2-(3,4-dimethoxyphenyl)-3-(2,2,2-trifluoroethyl)-1H-indol-5-yl)piperidin-1-yl)acetamide] has an IC50 of 8.43 µM. `COc1ccc(-c2[nH]c3ccc(C4CCNCC4F)cc3c2C(C)C)cc1OC` (racemic) [Example 320, 2-(3,4-dimethoxyphenyl)-5-(3-fluoropiperidin-4-yl)-3-isopropyl-1H-indole] showed an IC50 of 5.02 µM. For `CCN(CCN(C)C)C(=O)CN1CCC(c2ccc3[nH]c(-c4ccc(OC)c(OC)c4)c(CC(F)(F)F)c3c2)CC1` [Example 372, 2-(4-(2-(3,4-dimethoxyphenyl)-3-(2,2,2-trifluoroethyl)-1H-indol-5-yl)piperidin-1-yl)-N-(2-(dimethylamino)ethyl)-N-ethylacetamide], the IC50 was 0.335 µM. In the case of `COc1ccc(-c2[nH]c3ccc(C4CCN(C(=O)CN(C)C)CC4)cc3c2CC(F)(F)F)cc1OC` [Example 354, 1-(4-(2-(3,4-dimethoxyphenyl)-3-(2,2,2-trifluoroethyl)-1H-indol-5-yl)piperidin-1-yl)-2-(dimethylamino)ethan-1-one], the IC50 is reported as 2.15 µM. `COc1ccc(-c2[nH]c3ccc(C4CCN(C(=O)CCn5cccc5)CC4)cc3c2CC(F)(F)F)cc1OC` [Example 344, 1-(4-(2-(3,4-dimethoxyphenyl)-3-(2,2,2-trifluoroethyl)-1H-indol-5-yl)piperidin-1-yl)-3-(1H-pyrrol-1-yl)propan-1-one] gave an IC50 of no less than 50 µM. For `COc1ccc(-c2[nH]c3ccc(C4CCN(C(=O)[C@@H]5CCCN5C(C)=O)CC4)cc3c2CC(F)(F)F)cc1OC` [Example 336, (S)-1-(2-(4-(2-(3,4-dimethoxyphenyl)-3-(2,2,2-trifluoroethyl)-1H-indol-5-yl)piperidine-1-carbonyl)pyrrolidin-1-yl)ethan-1-one], the IC50 was 27.8 µM. `CCC(CC)NC(=O)CN1CCC(c2ccc3[nH]c(-c4ccc(OC)c(OC)c4)c(CC(F)(F)F)c3c2)CC1` [Example 378, 2-(4-(2-(3,4-dimethoxyphenyl)-3-(2,2,2-trifluoroethyl)-1H-indol-5-yl)piperidin-1-yl)-N-(pentan-3-yl)acetamide] showed an IC50 of 14.4 µM. Work on `COc1ccc(-c2[nH]c3ccc(C4CCN(C(=O)CCC(F)(F)F)CC4)cc3c2CC(F)(F)F)cc1OC` [Example 350, 1-(4-(2-(3,4-dimethoxyphenyl)-3-(2,2,2-trifluoroethyl)-1H-indol-5-yl)piperidin-1-yl)-4,4,4-trifluorobutan-1-one] yielded an IC50 of no less than 50 µM. For `COc1ccc(-c2[nH]c3ccc(C4CCNCC4F)cc3c2C(C)C)cc1OC` (single isomer, unassigned) [Example 324, 2-(3,4-dimethoxyphenyl)-5-(3-fluoropiperidin-4-yl)-3-isopropyl-1H-indole], the IC50 was 3.53 µM. For `COc1ccc(-c2[nH]c3ccc(C4CCN(CC(=O)N5CCN(C(C)C)CC5)CC4)cc3c2CC(F)(F)F)cc1OC` [Example 362, 2-(4-(2-(3,4-dimethoxyphenyl)-3-(2,2,2-trifluoroethyl)-1H-indol-5-yl)piperidin-1-yl)-1-(4-isopropylpiperazin-1-yl)ethan-1-one], the IC50 was 1.15 µM. Work on `CCc1c(-c2ccc(OC)c(OC)c2)[nH]c2cc(C)c(C3CCNCC3)cc12` [Example 396, 2-(3,4-dimethoxyphenyl)-3-ethyl-6-methyl-5-(piperidin-4-yl)-1H-indole, HCl] yielded an IC50 of 3.43 µM. `COc1ccc(-c2[nH]c3ccc(C4CCN(CC(=O)NCCN5CCCC5)CC4)cc3c2CC(F)(F)F)cc1OC` [Example 375, 2-(4-(2-(3,4-dimethoxyphenyl)-3-(2,2,2-trifluoroethyl)-1H-indol-5-yl)piperidin-1-yl)-N-(2-(pyrrolidin-1-yl)ethyl)acetamide] was tested, and the IC50 was 0.701 µM. For `COc1ccc(-c2[nH]c3ccc(C4CCN(C(=O)CCN(C)C)CC4)cc3c2CC(F)(F)F)cc1OC` [Example 340, 1-(4-(2-(3,4-dimethoxyphenyl)-3-(2,2,2-trifluoroethyl)-1H-indol-5-yl)piperidin-1-yl)-3-(dimethylamino)propan-1-one], the IC50 was 0.914 µM. Compound `COc1ccc(-c2[nH]c3ccc(C4CCN(C(=O)Cc5cccnc5)CC4)cc3c2CC(F)(F)F)cc1OC` [Example 335, 1-(4-(2-(3,4-dimethoxyphenyl)-3-(2,2,2-trifluoroethyl)-1H-indol-5-yl)piperidin-1-yl)-2-(pyridin-3-yl)ethan-1-one] has an IC50 of 15.3 µM. `COc1ccc(-c2[nH]c3ccc(C4CCN(CC(=O)NCCS(=O)(=O)O)CC4)cc3c2CC(F)(F)F)cc1OC` [Example 386, 2-(2-(4-(2-(3,4-dimethoxyphenyl)-3-(2,2,2-trifluoroethyl)-1H-indol-5-yl)piperidin-1-yl)acetamido)ethane-1-sulfonic acid] gave an IC50 of no less than 50 µM. `COc1ccc(-c2[nH]c3ccc(C4CCN(CC(=O)N5CCC(N(C)C)CC5)CC4)cc3c2CC(F)(F)F)cc1OC` [Example 364, 2-(4-(2-(3,4-dimethoxyphenyl)-3-(2,2,2-trifluoroethyl)-1H-indol-5-yl)piperidin-1-yl)-1-(4-(dimethylamino)piperidin-1-yl)ethan-1-one] gave an IC50 of 0.563 µM. Work on `COc1ccc(-c2[nH]c3ccc(C4CCN(CC(=O)N5CCC(N6CCN(C)CC6)CC5)CC4)cc3c2CC(F)(F)F)cc1OC` [Example 363, 2-(4-(2-(3,4-dimethoxyphenyl)-3-(2,2,2-trifluoroethyl)-1H-indol-5-yl)piperidin-1-yl)-1-(4-(4-methylpiperazin-1-yl)piperidin-1-yl) ethan-1-one] yielded an IC50 of 0.268 µM. Work on `COc1ccc(-c2[nH]c3ccc(C4CCN(C(=O)Cc5cnccn5)CC4)cc3c2CC(F)(F)F)cc1OC` [Example 342, 1-(4-(2-(3,4-dimethoxyphenyl)-3-(2,2,2-trifluoroethyl)-1H-indol-5-yl)piperidin-1-yl)-2-(pyrazin-2-yl)ethan-1-one] yielded an IC50 of 26.4 µM. `COc1ccc(-c2[nH]c3ccc(C4CCN(C(=O)CN[C@H](C)C(C)C)CC4)cc3c2C2CCOCC2)cc1OC` [Example 394, (R)-1-(4-(2-(3,4-dimethoxyphenyl)-3-(tetrahydro-2H-pyran-4-yl)-1H-indol-5-yl)piperidin-1-yl)-2-((3-methylbutan-2-yl)amino)ethan-1-one] was tested, and the IC50 was 2.76 µM.
